In ChEMBL document CHEMBL1145731, “A green fluorescent chemosensor for amino acids provides a versatile high-throughput screening (HTS) assay for proteases” (Bioorg Med Chem Lett, 2003) one finds EC50 data, which are given here for 10 compounds.

A short description of this test: Concentration required for obtaining 50% of the fluorescence intensity of copper-free calcein 1, in bovine serum albumin.
Usually EC50 stands for the concentration at which the effect is half-maximal. For the compound `C[C@H](N)C(=O)O` [ALANINE], the EC50 is around 800 µM.
For the compound `N[C@@H](CS)C(=O)O` [CYSTEINE], the EC50 is 20 µM.
Then `O=C(O)CN(CCN(CC(=O)O)CC(=O)O)CC(=O)O` [EDETIC ACID], with 10 µM; and `NCC(=O)O` [GLYCINE], with 500 µM; and `N[C@@H](Cc1c[nH]cn1)C(=O)O` [HISTIDINE], with 10 µM.
Then `CC(C)CC(N)C(N)=O` (stereo not given) [LEUCINAMIDE], with 12000 µM; and `CC(C)C[C@H](N)C(=O)O` [LEUCINE], with 5000 µM; and `CSCC[C@H](N)C(=O)O` [METHIONINE], with 800 µM.
The value for `N[C@@H](CO)C(=O)O` [SERINE] was 700 µM.
For the compound `CC(C)[C@H](N)C(=O)O` [VALINE], the EC50 is 1500 µM.
